# Results taken from ChEMBL document CHEMBL1166004, “Microbial transformations of the taxan ring of 10-DAB by some strains of the fungus Curvularia lunata: formation of the bis-abeotaxanes wallifoliol and 4-deacylwallifoliol” (J Nat Prod, 2010).
# System: NCI-H460
# Assay: Cytotoxicity against human H460 cells
# Type: functional, cell-based
row,SMILES,IC50 [µM]
1,CC1=C2[C@]3(O)C(=O)OC(C)(C)[C@]2(C[C@@H]1O)[C@@H](OC(=O)c1ccccc1)[C@@H]1[C@]2(O)CO[C@@H]2C[C@H](O)[C@]13C,103
2,CC(=O)O[C@@]12CO[C@@H]1C[C@H](O)[C@]1(C)[C@@H]2[C@H](OC(=O)c2ccccc2)[C@]23C[C@H](O)C(C)=C2[C@@]1(O)C(=O)OC3(C)C [WALLIFOLIOL],68
